Measured values: patent US9855229B2, “Treatment of respiratory disorders using ROR-gamma inhibitors” (Glenmark Pharmaceuticals S.A., priority 2015, dated 2018)

Assays:
[1] = biological target: human RORγ receptor (GST-tagged ROR gamma ligand binding domain) (Homo sapiens (Human), UniProt P51449); assay: TR-FRET assay for ROR gamma (Lantha Screen co-activator peptide recruitment); format: biochemical; conditions: 10 nM GST-tagged ROR gamma LBD, read-out: IC50 value for inhibiting human RORγ receptor activity
From the text: The compounds described herein were screened for RORγ inhibitor activity using the TR-FRET assay by Lantha Screen as described in JBC 2011, 286, 26: 22707-10; and Drug Metabolism and Disposition 2009, 37, 10: 2069-78
TR-FRET Assay for ROR Gamma:
The assay is based on the principle that binding of the agonist to the RORγ causes a conformational change around helix 12 in the ligand binding domain, resulting in higher affinity for the co-activator peptide. The Fluorescein-D22 co-activator peptide used in the assay is recruited in the absence of a ligand. Binding of the co-activator peptide, causes an increase in the TR-FRET signal while binding of an inhibitor decreases the recruitment of the co-activator peptide, causing a decrease in the TR-FRET signal compared to a control with no test compound. The assay was performed using a two-step procedure, pre-incubation step with the test compound followed by the detection step on addition of the anti-GST tagged terbium (Tb) and fluorescein tagged fluorophores as the acceptor.
Test compounds or reference compounds such as T0901317 (Calbiochem) were dissolved in dimethylsulfoxide (DMSO) to prepare 10.0 mM stock solutions and diluted to the desired concentration. The final concentration of DMSO in the reaction was 4% (v/v). The assay mixture was prepared by mixing 10 nM of the GST-tagged ROR gamma ligand binding domain (LBD) in the assay buffer containing 25 mM HEPES (pH 7.4), 100 mM NaCl, 5 mM DTT and 0.01% BSA with or without the desired concentration of the test compound. The reaction was incubated at 22° C. for 1 hour. The pre-incubation step was terminated by addition of the detection mixture containing 300 nM Fluorescein-D22 co-activator peptide and 10 nM lantha screen Tb-anti GST antibody into the reaction mixture. After shaking for 5 minutes the reaction was further incubated for 1 hour at room temperature and read at 4° C. on an Infinite F500 reader as per the kit instructions (Invitrogen). The inhibition by test compound was calculated based on the TR-FRET ratio of 520/495. The activity was calculated as a percent of the control reaction. IC50 values were calculated from dose response curve by nonlinear regression analysis using GraphPad Prism software.

[2] = tested on: anti CD2/3/28 stimulated IL-17 release from PBMC of COPD patients; assay: Ex-vivo IL-17 inhibition from PBMCs of COPD patients; format: cell-based, human; conditions: for IC50: average over patients, 72 hrs
Method: (§1) Ex vivo effect of ROR γt inhibitors were evaluated on tissue samples of eligible subjects suffering from moderate (Stage II), severe (Stage III) to very severe (Stage IV) COPD classified in accordance with GOLD guidelines.
Blood was collected in a heparin tube prior to bronchoscopy. 1:1 diluted blood was layered over Histopaque and centrifuged at 400 g, 30 min, at room temperature. The PBMC layer at the interface was aspirated and washed twice with PBS prior to re-suspension in 10% FBS containing media.
(§2) PBMCs or BAL cells were seeded at 1-2×10^5 cells per well onto 96-well flat bottomed plates pre-coated with 2 μg/ml of CD2 antibody (LEAF Purified, Biolegend, #300212) and 10 μg/ml of CD3 antibody (Purified NA/LE, BD, #555329). This was followed by the pre-treatment with compounds (concentrations ranging from 1 nM to 10 uM) and roflumilast for one hour prior to addition of 2 μg/ml of soluble CD28 antibody (LEAF purified, Biolegend, #302914). BAL cells and PBMC were then incubated at 37° C. for 72 hrs in 5% CO2 incubator, after which supematants were collected and stored at −80° C. prior to cytokine analysis.
(§3) Supematants were analysed for IL-17A using either the High Sensitivity ELISA (eBioscience), or the LEGEND MAX™ ELISA kit (Biolegend) according to the manufacturer's instructions.
(§4) IL-17 cytokine concentrations in the supematants were determined from the standard curve plot. Percent inhibition for each set treated with compound was calculated using the formula: Percent inhibition={100−(pg/ml of test compound/pg/ml of control×100)}. IC50 values were calculated from the dose response curves by nonlinear regression analysis using GraphPad Prism Software. Results

[3] = tested on: anti CD2/3/28 stimulated IL-17 release from COPD lung BAL cells; assay: Ex-vivo IL-17 inhibition from BAL cells of COPD patients; format: cell-based, human; conditions: for IC50: average over patients, 72 hrs
Method: as §1
Flexible fiber optic bronchoscopy was performed on 6 eligible subjects (COPD patients) after written valid consent and lignocaine nebulization. Bronchoscope was wedged into bronchus, pre-warmed sterile saline solution instilled into the lobes and bronchoalveolar lavage was collected in sterile container on ice. The filtrate was passed through the cell strainer for removing the particulate matter and centrifuged at 2000 rpm for 10 mins. The BAL cell pellet obtained was further treated with ACK buffer to lyse out the RBCs. Isolated BAL cells per suspended in 10% FBS containing medium.
as §2, §3, §4

[4] = tested on: cigarette smoke (CS) induced pulmonary inflammation model in male C57BL6/J mice; assay: Cigarette smoke (CS) induced pulmonary inflammation model, 7 days exposure, BAL cell count; format: in vivo; conditions: i.n., od, 7 days CS exposure; for CS mediated increase in macrophages in BALf / CS mediated increase in neutrophils in BALf / CS mediated increase in total leukocyte count (TLC) in BALf: BAL 20 hours after last smoke exposure
Method: Male C57BL/6 mice were exposed alternately to cigarette smoke (10 Kentucky Research Cigarettes 3R4F) and fresh air for 50 minutes (10 seconds cigarette smoke+5 seconds air for 19 puffs per cigarette) twice daily for 7 days in a whole-body box exposure system (SIU24, ProMech Lab Holding AB, Sweden). Test compounds were sonicated in 1×PBS containing 0.005% tween 80. For localized delivery to lung, animals were administered vehicle or test compounds intranasally (i.n.) (40 μl per animal) under isoflurane anaesthesia, once or twice in a day, 1 hour before smoke exposure. Non-drug-treated air and smoked control animals were given vehicle before exposure to fresh air or smoke as appropriate. Animals were sacrificed 20 hours after the last smoke exposure and subjected to bronchoalveolar lavage (BAL). Total and differential BAL cell count was performed.
BAL was performed at approximately 20 hours after final smoke exposure. Animals were euthanized with an overdose of urethane, trachea was exposed and BAL was performed 4 times using 0.3 ml PBS. All aspirates of BAL were pooled and total numbers of cells were determined using a hemocytometer. BALf was centrifuged. The cell pellet collected after centrifugation was resuspended in 15 μL serum and used for preparation of smears.
For cell differentials, slides were stained with Leishman's stain and a differential cell count of 500 cells based on standard morphology was performed manually.
Total and differential cell count was determined in the BALf. The results were expressed as percent inhibition of leukocytes in BALf. The change in the treatments was statistically evaluated by ANOVA followed by Dunnett's multiple comparisons test.

Sequence of human RORγ receptor (GST-tagged ROR gamma ligand binding domain) (P51449 269-508): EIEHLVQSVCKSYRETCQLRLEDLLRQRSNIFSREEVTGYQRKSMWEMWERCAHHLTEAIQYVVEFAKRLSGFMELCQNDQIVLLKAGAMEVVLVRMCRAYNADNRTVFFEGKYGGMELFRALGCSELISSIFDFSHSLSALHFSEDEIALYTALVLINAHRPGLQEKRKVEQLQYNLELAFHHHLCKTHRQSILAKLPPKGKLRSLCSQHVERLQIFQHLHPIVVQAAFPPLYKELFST

Compound `CCS(=O)(=O)c1ccc(CC(=O)Nc2ccc(OC(C)(C)c3ccc(Cl)cc3Cl)c(F)c2)cc1` [Compound 4] has an IC50 [1] of 5.99 nM.

`CCn1c(C(C)(C)Oc2ccc(F)cc2F)nc2cc(NC(=O)Cc3ccc(S(=O)(=O)CC)cc3)ccc21` [Compound 1] showed an IC50 [1] of 4.26 nM, an IC50 ([2]; Homo sapiens) of 147 nM and an IC50 ([3]; Homo sapiens) of 350 nM.

`O=C(Nc1c(Cl)cncc1Cl)c1ccc(OC(F)F)c(OCC2CC2)c1` [Roflumilast, reference compound] was tested, and the inhibition at 10 µM ([2]; Homo sapiens, at 10 μM, read-out: PBMC IL-17 percent inhibition) was 20.2% and the inhibition at 10 µM ([3]; Homo sapiens, at 10 μM, read-out: BAL IL-17 percent inhibition) was 6.75%.

`CCS(=O)(=O)c1ccc(CC(=O)Nc2ccc(OC3(c4ccc(Cl)cc4Cl)CCOCC3)c(F)c2)cc1` [Compound 10] was tested, and the IC50 [1] was 16.2 nM, the IC50 [2] was 367 nM and the IC50 [3] was 720 nM.

With `CCS(=O)(=O)c1ccc(CC(=O)Nc2ccc(OC(C)(C)c3ncc(Cl)cc3Cl)c(F)c2)cc1` [Compound 11] the IC50 [1] was 25.7 nM, the IC50 [2] was 84 nM and the IC50 [3] was 2700 nM.

In the case of `CCS(=O)(=O)c1ccc(CC(=O)Nc2ccc(OC(C)(C)c3ccc(Cl)cc3Cl)cc2)cc1` [Compound 3], the IC50 [1] is reported as 5.52 nM, the “inhibition of pulmonary inflammation induced by cigarette smoke” value [4] is reported as “significant inhibition” and the “CS mediated increase in macrophages in BALf” value [4] is reported as “significantly prevented”. The “CS mediated increase in neutrophils in BALf” value [4] was “significantly prevented” and the “CS mediated increase in total leukocyte count (TLC) in BALf” value [4] was “significantly prevented”.

`CCS(=O)(=O)c1ccc(CC(=O)Nc2ccc(C#CC(C)(C)Oc3ccc(Cl)c(F)c3)cc2)cc1` [Compound 5] was tested, and the IC50 [1] was 17.4 nM.

`CCS(=O)(=O)c1ccc(CC(=O)Nc2ccc(OC3(c4ccc(Cl)cc4Cl)CCOCC3)cc2)cc1` [Compound 9] gave an IC50 [1] of 18.4 nM, an IC50 ([2]; Homo sapiens) of 360 nM and an IC50 ([3]; Homo sapiens) of 2390 nM. For the same compound, the “inhibition of pulmonary inflammation induced by cigarette smoke” value [4] was “significant inhibition”, the “CS mediated increase in macrophages in BALf” value [4] was “significantly prevented” and the “CS mediated increase in neutrophils in BALf” value [4] was “significantly prevented”. For the same compound, the “CS mediated increase in total leukocyte count (TLC) in BALf” value [4] was “significantly prevented”.
